According to ChEMBL document CHEMBL3853272, “Polymerase Acidic Protein-Basic Protein 1 (PA-PB1) Protein-Protein Interaction as a Target for Next-Generation Anti-influenza Therapeutics” (J Med Chem, 2016):
pEC50, pIC50, pKd: −log10 of the molar value.

Tests used:
[1] = molecular target: Polymerase acidic protein /RNA-directed RNA polymerase catalytic subunit (Influenza A virus (strain A/Wilson-Smith/1933 H1N1), UniProt P03430+P15659); assay: Inhibition of Influenza A virus A/WSN/1933(H1N1) HA-tagged PA/PB1 interaction in HEK293T cells assessed as inhibition of viral growth by competitive ELISA; format: cell-based, HEK-293T
[2] = (§1) Inhibition of Influenza A virus A/PR/8/34(H1N1) 6His-tagged PA (239 to 716 residues)/GST-tagged PB1 (1 to 15 residues) fused with HIV-Tat interaction by ELISA; parameters: species or system Influenza A virus (A/Puerto Rico/8/1934(H1N1))
[3] = tested on: Influenza A virus (A/Puerto Rico/8/1934(H1N1)); assay: as §1
[4] = Cytotoxicity against MDCK cells measured after 24 to 120 hrs by MTT assay; format: toxicity, cell-based, Canis lupus familiaris; conditions: dog
[5] = Antiviral activity against Influenza A virus A/PR/8/34 (H1N1) infected in MDCK cells assessed as reduction in plaque formation after 2 days by plaque reduction assay; format: functional, cell-based, Influenza A virus (A/Puerto Rico/8/1934(H1N1)); conditions: 48 h
[6] = (§2) Inhibition of Influenza A virus A/PR/8/34 RNA-dependent-RNA polymerase transfected in HEK293T cells assessed as reduction in viral growth after 24 hrs by minireplicon assay; format: cell-based, Influenza A virus (A/Puerto Rico/8/1934(H1N1)); conditions: hek-293t
HEK-293T = assay: as §2; format: cell-based; conditions: Influenza A virus (A/Puerto Rico/8/1934(H1N1))
[7] = Cytotoxicity against MDCK cells by MTT assay; format: toxicity, cell-based, Canis lupus familiaris; conditions: dog
[8] = molecular target: Polymerase acidic protein (Influenza A virus (A/Puerto Rico/8/1934(H1N1)), UniProt P03433); assay: Binding affinity to PA cavity of recombinant Influenza A virus A/PR/8/34(H1N1) PA (239 to 716 residues) measured after 2 mins by SPR analysis
[9] = Inhibition of Influenza A virus A/WSN/1933(H1N1) PA/PB1 interaction transfected in HEK293T cells assessed as inhibition of viral growth measured after 24 hrs by minireplicon assay; format: cell-based; conditions: hek-293t
[10] = Inhibition of Influenza A virus A/PR/8/34(H1N1) 6His-tagged PA (239 to 716 residues)/GST-tagged PB1 (1 to 15 residues) interaction; parameters: species or system Influenza A virus (A/Puerto Rico/8/1934(H1N1))
[11] = Inhibition of Influenza A virus A/PR/8/34(H1N1) RNA-dependent-RNA polymerase transfected in MDCK cells assessed as reduction in viral growth after 24 hrs by minireplicon assay; format: cell-based, Influenza A virus (A/Puerto Rico/8/1934(H1N1))
[12] = Inhibition of Influenza B virus B/Lee/40 RNA-dependent-RNA polymerase transfected in MDCK cells assessed as reduction in viral growth after 24 hrs by minireplicon assay; format: cell-based, Influenza B virus (B/Lee/1940)
Influenza A virus = assay: Antiviral activity at Influenza A virus infected in MDCK cells by plaque reduction assay; format: functional, cell-based
[13] = Inhibition of Influenza B virus HA-tagged PA/PB1 interaction in HEK293T cells assessed as inhibition of viral growth by competitive ELISA; format: cell-based; conditions: hek-293t
Influenza B virus = assay: Antiviral activity at Influenza B virus infected in MDCK cells by plaque reduction assay; format: functional, cell-based

`CSCC[C@H](N)C(=O)N[C@@H](CC(=O)O)C(=O)N[C@@H](Cc1ccc(O)cc1)C(=O)N[C@@H](CC(N)=O)C(=O)N1CCC[C@H]1C(=O)N[C@@H](Cc1ccccc1)C(=O)N[C@@H](CC(C)C)C(=O)N[C@@H](CC(C)C)C(=O)N[C@@H](Cc1ccccc1)C(=O)N[C@@H](CC(C)C)C(=O)N[C@@H](CCCCN)C(=O)N[C@H](C(=O)N1CCC[C@H]1C(=O)N[C@@H](C)C(=O)N[C@@H](CCC(N)=O)C(=O)O)C(C)C` showed a pIC50 [1] of 8.20.

For `COc1ccc(CC2(CCC(=O)NC(C)Cn3ccc4ccccc43)CCC(=O)N2)cc1` (centres undefined), the pIC50 [2] was 3.70, the inhibition [3] was “Dose-dependent effect” and the CC50 [4] was over 250 µM. The pEC50 [5] was under 4.00, the pIC50 [6] was under 4.00 and the inhibition (HEK-293T) was “Dose-dependent effect”.

Compound `O=[N+]([O-])c1ccc(Oc2ccc(-n3cc(CO)nn3)cc2)c2nonc12` has a CC50 [7] of 40 µM, a pIC50 [2] of 4.46 and a pEC50 [5] of 6.00.

For `NC(=O)c1c(NC(=O)c2cnn3c(C(F)F)cc(-c4ccccc4)nc23)sc2c1CCC2`, the pIC50 [2] was 4.60, the inhibition [3] was “Dose-dependent effect” and the CC50 [4] was over 1000 µM. For the same compound, the pEC50 [5] was 4.12, the pIC50 [6] was 4.51 and the inhibition (HEK-293T) was “Dose-dependent effect”.

`N#CC(c1ccc(Cl)cc1)c1c(Cl)cc(-n2ncc(=O)[nH]c2=O)cc1Cl` (centres undefined) [DICLAZURIL] showed a pKd [8] of 3.68 and a pEC50 [5] of 4.51.

Work on `Nc1ccc(O)c2c1C(=O)c1c(N)ccc(O)c1C2=O` yielded a pIC50 [9] of 4.80, a CC50 [4] of over 250 µM and a pIC50 [10] of 4.70. For the same compound, the pEC50 [11] was 4.85, the pEC50 [12] was 5.08 and the pEC50 (Influenza A virus) was 4.89.

Work on `CC(C)C[C@H](NC(=O)[C@H](Cc1ccccc1)NC(=O)[C@H](CC(C)C)NC(=O)[C@H](CC(C)C)NC(=O)[C@@H](NC(=O)[C@@H]1CCCN1)[C@@H](C)O)C(=O)N[C@@H](CCCCN)C(=O)O` yielded a pIC50 [1] of under 5.00.

In the case of H-MDVNPYLLFLKVPAQ-OH, the pIC50 [1] was 7.66 and the pIC50 [13] was 6.97.

`CC(=O)O[C@H]1CC[C@H]2[C@@H]3CCC4=CC(=O)CCC4=C3C=C[C@]12C` [TRENBOLONE ACETATE] showed a pKd [8] of 4.04 and a pEC50 [5] of 4.29.

In the case of `O=[N+]([O-])c1ccc(Sc2cccc(-n3ccnc3)c2)c2nonc12`, the CC50 [7] was 20 µM, the pIC50 [2] was 4.82 and the pEC50 [5] was 5.00.

`CSCC[C@H](N)C(=O)N[C@@H](CC(=O)O)C(=O)N[C@H](C(=O)N[C@@H](CC(N)=O)C(=O)N1CCC[C@H]1C(=O)N[C@H](C(=O)N[C@@H](CC(C)C)C(=O)N[C@@H](CC(C)C)C(=O)N[C@@H](Cc1ccccc1)C(=O)N[C@@H](CC(C)C)C(=O)N[C@@H](CCCCN)C(=O)N[C@H](C(=O)N1CCC[C@H]1C(=O)N[C@@H](C)C(=O)N[C@@H](CCC(N)=O)C(=O)O)C(C)C)[C@@H](C)O)C(C)C` gave a pIC50 [13] of under 5.52.

With `COc1ccc(C(=O)Nc2nc3n(n2)C(c2ccccc2)C=C(C)N3)cc1` (centres undefined) the pIC50 [2] was 3.77, the inhibition [3] was “Dose-dependent effect” and the CC50 [4] was over 250 µM. For the same compound, the pEC50 [5] was under 4.00, the pIC50 [6] was under 4.00 and the inhibition (HEK-293T) was “Dose-dependent effect”.

Compound `CCc1oc2ccccc2c1C(=O)c1cc(Br)c(O)c(Br)c1` [BENZBROMARONE] has a pKd [8] of 4.32 and a pEC50 [5] of 4.41.

In the case of `CC[C@H](C)[C@H](NC(=O)[C@@H]1CCCN1C(=O)[C@@H](NC(=O)[C@H](CCCCN)NC(=O)[C@H](CC(C)C)NC(=O)[C@H](Cc1ccccc1)NC(=O)[C@H](CC(C)C)NC(=O)[C@H](CC(C)C)NC(=O)[C@H](Cc1ccccc1)NC(=O)[C@@H]1CCCN1C(=O)[C@H](CC(N)=O)NC(=O)[C@@H](NC(=O)[C@H](CC(=O)O)NC(=O)[C@@H](N)CCSC)C(C)C)C(C)C)C(=O)N[C@@H](CCC(N)=O)C(=O)O`, the pIC50 [1] was 7.66.

With `COC(=O)C1=C(N)N(c2cccc(Cl)c2C)C2=C(C(=O)CCC2)C1c1ccc2c(c1)OCO2` (centres undefined) the pIC50 [2] was 4.52, the inhibition [3] was “Dose-dependent effect” and the CC50 [4] was over 1000 µM. For the same compound, the pEC50 [5] was 4.73, the pIC50 [6] was 4.74 and the inhibition (HEK-293T) was “Dose-dependent effect”. The pEC50 (Influenza A virus) was 4.92 and the pEC50 (Influenza B virus) was 4.92.

In the case of `CSCC[C@H](N)C(=O)N[C@@H](CC(=O)O)C(=O)N[C@H](C(=O)N[C@@H](CC(N)=O)C(=O)N1CCC[C@H]1C(=O)N[C@@H](Cc1ccccc1)C(=O)N[C@@H](CC(C)C)C(=O)N[C@@H](CC(C)C)C(=O)N[C@@H](Cc1ccccc1)C(=O)N[C@@H](CC(C)C)C(=O)N[C@@H](CCCCN)C(=O)N[C@H](C(=O)N1CCC[C@H]1C(=O)N[C@@H](C)C(=O)N[C@@H](Cc1ccccc1)C(=O)O)C(C)C)C(C)C`, the pIC50 [1] was 7.86.

`CSCC[C@H](N)C(=O)N[C@@H](CC(=O)O)C(=O)N[C@H](C(=O)N[C@@H](CC(N)=O)C(=O)N1CCC[C@H]1C(=O)N[C@@H](Cc1ccccc1)C(=O)N[C@@H](CC(C)C)C(=O)N[C@@H](CC(C)C)C(=O)N[C@@H](Cc1ccccc1)C(=O)N[C@@H](CC(C)C)C(=O)N[C@@H](CCCCN)C(=O)N[C@H](C(=O)N[C@@H](CCCCN)C(=O)N[C@@H](C)C(=O)N[C@@H](CCC(N)=O)C(=O)O)C(C)C)C(C)C` showed a pIC50 [1] of 7.78.

Work on H-MNINPYFLFIDVPIQ-OH yielded a pIC50 [1] of under 5.52 and a pIC50 [13] of 7.35.
